Biological target: Factor D (Homo sapiens (Human), UniProt P00746)
Assay: Factor D esterolytic assay
Assay type: biochemical
Conditions: Z-Lys-SBzl substrate, 100 mM HEPES, 500 mM NaCl, pH 7.5, 10% DMSO; tested a minimum of three times; read-out: Measured Ki (IC50) Value for Compounds: IC50
Method: The IC50 value of a compound (i.e., the concentration of the compound that inhibits 50% of the enzymatic activity) was calculated according to the procedure reported in U.S. Pat. No. 6,653,340 B1, e.g., column 74 (incorporated by reference).
Specifically, the compounds were dissolved in a stock solution of DMSO at 10.0 or 100 mM. A portion of this stock solution was added to assay buffer in a final volume of 50 μL. Controls included buffer alone and enzyme solutions to which DMSO was added. Substrate was added to the reaction wells immediately or after incubation at room temperature. The reaction rates were measured spectrophotometrically by the generation of product at 405 nm for 600 sec. Background absorbance at 690 nm was measured and subtracted from the absorbance at 405 nm for each well.
The reaction rate for enzyme alone was compared to the rate of enzyme in the presence of inhibitor and the percent inhibition was calculated as shown below: […]
An established esterolytic assay for the measurement of Factor D activity and inhibition of Factor D activity was used (Kam, C. M.; McRae, B. J.; Harper, J. W.; Niemann, M. A.; Volanakis, J. E.; Powers, J. C. Human complement proteins D, C2, and B Active site mapping with peptide thioester substrates. J Biol. Chem. 1987, 262, 3444-3451). For this assay Z-Lys-SBzl, 1.29 mM (Kim, S.; Narayana, S. V. L; Volanakis, J. E. Mutational analysis of the substrate binding site of human complement Factor D. Biochemistry. 1994, 33, 14393-14399.) was used as the substrate for Factor D ([…]). Hydrolysis of this compound by Factor D liberated a free sulfhydryl group which is then reacted with 5,5′-dithiobis(2nitrobenzoic acid) producing an intense yellow color (Habeeb, A. F. S. A. Reaction of protein sulfhydryl groups with Ellman's Reagent. Methods in Enzymol. 1976, 25, 457-464.). The assays were performed in 96 well microtiter plates and rates of hydrolysis were monitored at 405 nm on a Biotek Synergy H1 plate reader. Hydrolysis rates were reported as change in mOD/min. The assay was conducted in 100 mM HEPES, 500 mM NaCl, pH 7.5 containing 10% DMSO in a final volume of 50 μL per well.
An IC50, a compound concentration which inhibits 50% of the enzymatic activity, was calculated. Compounds in the examples were tested a minimum of three times.

Sequence of Factor D (P00746 26-253): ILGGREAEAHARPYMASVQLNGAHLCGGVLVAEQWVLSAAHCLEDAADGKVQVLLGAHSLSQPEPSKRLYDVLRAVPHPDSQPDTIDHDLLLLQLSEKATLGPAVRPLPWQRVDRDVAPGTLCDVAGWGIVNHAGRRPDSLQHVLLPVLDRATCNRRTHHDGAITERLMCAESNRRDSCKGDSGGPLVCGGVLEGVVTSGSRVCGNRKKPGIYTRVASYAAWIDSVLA

Question: Which IC50 does the source give for CC(C)n1nc(COc2ccccc2CC(=O)O)c2cc(-c3cc(CN)cc(C4CCN(C)CC4)c3)ccc21 [Compound 333f, 2-(2-((5-(3-(aminomethyl)-5-(1-methylpiperidin-4-yl)phenyl)-1-isopropyl-1H-indazol-3-yl)methoxy)phenyl)acetic acid] here?
Answer: > 10000 nM

Question: How did the IC50 turn out when Cc1ccc(CC(=O)O)c(OCc2c3cc(-c4cccc(CN)c4)ccc3nn2C(C)C)c1 [Compound 256c, 2-(2-((5-(3-(aminomethyl)phenyl)-2-isopropyl-2H-indazol-3-yl)methoxy)-4-methylphenyl)acetic acid] was run?
Answer: < 1000 nM

Question: For N#Cc1ccc(CC(=O)O)c(OCc2coc3ccc(-c4cccc(CN)c4)cc23)c1 [Compound 57d, 2-(2-((5-(3-(aminomethyl)phenyl)benzofuran-3-yl)methoxy)-4-cyanophenyl)acetic acid], which IC50 is on record?
Answer: < 1000 nM

Question: How did the IC50 turn out when NCc1cc(F)cc(-c2ccc3occ(COc4ccccc4CC(=O)O)c3c2)c1 [Compound 40c, 2-(2-((5-(3-(aminomethyl)-5-fluorophenyl)benzofuran-3-yl)methoxy)phenyl)acetic acid] was run?
Answer: < 1000 nM

Question: Which IC50 does the source give for CC(C)(C)OC(=O)n1cc(COc2ccccc2CC(=O)O)c2cc(-c3cccc(CN)c3)ccc21 [Compound 75d, 2-(2-((5-(3-(aminomethyl)phenyl)-1-(tert-butoxycarbonyl)-1H-indol-3-yl)methoxy)phenyl)acetic acid] here?
Answer: < 1000 nM

Question: Which IC50 does the source give for COc1ccc(CC(=O)O)c(OCc2coc3c(NCC4CC4)cc(-c4cccc(CN)c4)cc23)c1 [Compound 276e, 2-(2-((5-(3-(aminomethyl)phenyl)-7-((cyclopropylmethyl)amino)benzofuran-3-yl)methoxy)-4-methoxyphenyl)acetic acid] here?
Answer: < 1000 nM

Question: With NCc1cccc(-c2ccc3occ(Cc4cccc(CC(=O)O)c4O)c3c2)c1F [Compound 42c, 2-(3-((5-(3-(aminomethyl)-2-fluorophenyl)benzofuran-3-yl)methyl)-2-hydroxyphenyl)acetic acid] as the compound, how does the IC50 read?
Answer: < 1000 nM

Question: Which IC50 does the source give for NCc1cccc(-c2cc(-c3cccnc3)c3occ(COc4ccccc4CC(=O)O)c3c2)c1 [Compound 162c, 2-(2-((5-(3-(aminomethyl)phenyl)-7-(pyridin-3-yl)benzofuran-3-yl)methoxy)phenyl)acetic acid] here?
Answer: < 1000 nM

Question: With NCc1cccc(-c2ccc3occ(COc4cc(CC5CC5)ccc4CC(=O)O)c3c2)c1 [Compound 153d, 2-(2-((5-(3-(aminomethyl)phenyl)benzofuran-3-yl)methoxy)-4-(cyclopropylmethyl)phenyl)acetic acid] as the compound, how does the IC50 read?
Answer: < 1000 nM

Question: For NCc1cccc(-c2cc(NC3CCCC3)c3occ(COc4ccccc4CC(=O)O)c3c2)c1 [Compound 188d, 2-(2-((5-(3-(aminomethyl)phenyl)-7-(cyclopentylamino)benzofuran-3-yl)methoxy)phenyl)acetic acid], which IC50 is on record?
Answer: < 1000 nM

Question: For CC(C)n1nc(C(=O)Nc2ccccc2C(=O)O)c2cc(-c3cccc(CN)c3)ccc21 [Compound 314e, 2-(5-(3-(aminomethyl)phenyl)-1-isopropyl-1H-indazole-3-carboxamido)benzoic acid], which IC50 is on record?
Answer: > 10000 nM

Question: Which IC50 does the source give for COc1ccc(CC(=O)O)c(OCc2c(C)oc3c(C4CC4)cc(-c4cccc(CN)c4)cc23)c1 [Compound 273j, 2-(2-((5-(3-(aminomethyl)phenyl)-7-cyclopropyl-2-methylbenzofuran-3-yl)methoxy)-4-methoxyphenyl)acetic acid] here?
Answer: < 1000 nM

Question: CC(C)n1nc(COc2ccccc2CCC(=O)O)c2cc(-c3cccc(CN)c3)ccc21 [Compound 308d, 3-(2-((5-(3-(aminomethyl)phenyl)-1-isopropyl-1H-indazol-3-yl)methoxy)phenyl)propanoic acid] was tested. Which IC50 did it give?
Answer: 1000 to 10000 nM

Question: For NCc1cccc(-c2ccc3cnn(Cc4ccccc4CC(=O)O)c3c2)c1 [Compound 67e, 2-(2-((6-(3-(aminomethyl)phenyl)-1H-indazol-1-yl)methyl)phenyl)acetic acid], which IC50 is on record?
Answer: < 1000 nM

Question: For CC(C)n1nc(COc2ccccc2CC(=O)O)c2cc(-c3cccc(N)c3)ccc21 [Compound 321c, 2-(2-((5-(3-aminophenyl)-1-isopropyl-1H-indazol-3-yl)methoxy)phenyl)acetic acid], which IC50 is on record?
Answer: 1000 to 10000 nM
